In ChEMBL document CHEMBL6096671, “Discovery of VU6024578/BI02982816: An mGlu1 Positive Allosteric Modulator with Efficacy in Preclinical Antipsychotic and Cognition Models” (J Med Chem, 2024):
Blank lines part the entries; values can stand above or below the compound they belong to. Calls of active or inactive are those of the source. The calls are words filed in the database; no cut-off is given here.

Assays:
[1] = Toxicity in male Sprague-Dawley rat assessed as catalepsy at 1.5 mg/kg, ip measured after 100 mins; assay type: organism-based; conditions: in vivo, 1.667 h
[2] = biological target: Metabotropic glutamate receptor 5 (Rattus norvegicus, UniProt P31424); assay: Positive allosteric modulation of rat mGlu5 receptor
Sequence of Metabotropic glutamate receptor 5 (Rattus norvegicus, UniProt P31424) (P31424 whole entry): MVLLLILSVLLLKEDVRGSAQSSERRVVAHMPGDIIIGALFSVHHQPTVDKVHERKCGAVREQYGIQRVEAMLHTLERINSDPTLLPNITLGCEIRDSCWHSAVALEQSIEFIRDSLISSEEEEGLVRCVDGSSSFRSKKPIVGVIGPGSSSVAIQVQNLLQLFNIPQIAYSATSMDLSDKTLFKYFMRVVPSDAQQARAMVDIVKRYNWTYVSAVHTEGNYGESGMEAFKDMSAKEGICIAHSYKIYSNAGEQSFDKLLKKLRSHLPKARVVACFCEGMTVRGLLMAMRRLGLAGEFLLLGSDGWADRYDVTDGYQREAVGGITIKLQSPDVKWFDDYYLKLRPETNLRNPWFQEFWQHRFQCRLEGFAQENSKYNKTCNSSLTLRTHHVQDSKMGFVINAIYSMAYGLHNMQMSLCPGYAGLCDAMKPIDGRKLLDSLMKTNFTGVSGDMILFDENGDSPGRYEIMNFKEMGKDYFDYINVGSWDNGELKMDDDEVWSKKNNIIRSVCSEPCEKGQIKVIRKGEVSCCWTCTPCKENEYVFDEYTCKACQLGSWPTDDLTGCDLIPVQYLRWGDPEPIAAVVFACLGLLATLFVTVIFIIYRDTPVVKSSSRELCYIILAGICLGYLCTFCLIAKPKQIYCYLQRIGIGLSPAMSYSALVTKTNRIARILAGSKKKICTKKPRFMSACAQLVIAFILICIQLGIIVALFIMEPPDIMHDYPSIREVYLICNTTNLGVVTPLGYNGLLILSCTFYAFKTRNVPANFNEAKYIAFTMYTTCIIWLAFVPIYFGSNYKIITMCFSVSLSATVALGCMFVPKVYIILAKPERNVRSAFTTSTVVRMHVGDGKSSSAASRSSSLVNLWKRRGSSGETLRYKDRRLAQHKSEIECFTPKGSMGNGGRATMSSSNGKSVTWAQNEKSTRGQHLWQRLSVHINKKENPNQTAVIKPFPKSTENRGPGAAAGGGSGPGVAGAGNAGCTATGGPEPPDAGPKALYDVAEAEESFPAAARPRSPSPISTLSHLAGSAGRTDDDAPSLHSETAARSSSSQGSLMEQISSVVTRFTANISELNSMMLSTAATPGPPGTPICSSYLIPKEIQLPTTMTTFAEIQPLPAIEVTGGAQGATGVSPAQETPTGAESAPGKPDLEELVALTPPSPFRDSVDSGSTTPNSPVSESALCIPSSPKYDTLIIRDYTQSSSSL

[3] = Mutagenicity in Salmonella typhimurium by Ames test; assay type: toxicity; conditions: salmonella enterica subsp. enterica serovar typhimurium
[4] = Unbound brain concentration in amphetamine-induced hyperlocomotion male Sprague-Dawley rat model at 10 mg/kg, po; assay type: ADME, organism-based; conditions: in vivo
[5] = Unbound brain concentration in amphetamine-induced hyperlocomotion male Sprague-Dawley rat model at 10 mg/kg, po measured after 6.5 hrs; assay type: ADME, organism-based; conditions: in vivo
[6] = biological target: Metabotropic glutamate receptor 3 (Rattus norvegicus, UniProt P31422); assay: Positive allosteric modulation of rat mGlu3 receptor
Rattus norvegicus [7] = assay: Antipsychotic efficacy against amphetamine-induced hyperlocomotion in male Sprague-Dawley rat assessed as reversal of hyperlocomotive state administered orally pretreated with compound followed by amphetamine addition and measured after 90 mins; assay type: functional, organism-based; conditions: dose 1-10 mg/kg, route po
[8] = Toxicity in male Wistar rat assessed as reduction in non rapid eye movement sleep at 1 to 10 mg/kg, po measured at 30 to 120 mins post treatment by EEG analysis; assay type: organism-based; conditions: in vivo, dose lower 1 mg/kg, time lower 30 min, dose upper 10 mg/kg, time upper 120 min
[9] = Stability of compound at pH 2.2; assay type: physicochemical; conditions: buffer
Rattus norvegicus [10] = assay: Antipsychotic activity in male Sprague-Dawley rat assessed as reduction in amphetamine-induced locomotor activity by measuring reversal of total ambulation at 10 mg/kg, po pretreated for 5 hrs followed by amphetamine addition and measured at 95 to 180 mins relative to control; assay type: functional; design: scale not given: the % may be the effect or the level left
[11] = biological target: Metabotropic glutamate receptor 7 (Rattus norvegicus, UniProt P35400); assay: Positive allosteric modulation of rat mGlu7 receptor
[12] = biological target: T1, Metabotropic glutamate receptor 1 (Homo sapiens, UniProt Q13255); assay: Agonist activity at mGlu1 receptor (unknown origin) upto 30 uM; assay type: functional
Target sequence in this assay (Q13255 19-1194 limits assumed): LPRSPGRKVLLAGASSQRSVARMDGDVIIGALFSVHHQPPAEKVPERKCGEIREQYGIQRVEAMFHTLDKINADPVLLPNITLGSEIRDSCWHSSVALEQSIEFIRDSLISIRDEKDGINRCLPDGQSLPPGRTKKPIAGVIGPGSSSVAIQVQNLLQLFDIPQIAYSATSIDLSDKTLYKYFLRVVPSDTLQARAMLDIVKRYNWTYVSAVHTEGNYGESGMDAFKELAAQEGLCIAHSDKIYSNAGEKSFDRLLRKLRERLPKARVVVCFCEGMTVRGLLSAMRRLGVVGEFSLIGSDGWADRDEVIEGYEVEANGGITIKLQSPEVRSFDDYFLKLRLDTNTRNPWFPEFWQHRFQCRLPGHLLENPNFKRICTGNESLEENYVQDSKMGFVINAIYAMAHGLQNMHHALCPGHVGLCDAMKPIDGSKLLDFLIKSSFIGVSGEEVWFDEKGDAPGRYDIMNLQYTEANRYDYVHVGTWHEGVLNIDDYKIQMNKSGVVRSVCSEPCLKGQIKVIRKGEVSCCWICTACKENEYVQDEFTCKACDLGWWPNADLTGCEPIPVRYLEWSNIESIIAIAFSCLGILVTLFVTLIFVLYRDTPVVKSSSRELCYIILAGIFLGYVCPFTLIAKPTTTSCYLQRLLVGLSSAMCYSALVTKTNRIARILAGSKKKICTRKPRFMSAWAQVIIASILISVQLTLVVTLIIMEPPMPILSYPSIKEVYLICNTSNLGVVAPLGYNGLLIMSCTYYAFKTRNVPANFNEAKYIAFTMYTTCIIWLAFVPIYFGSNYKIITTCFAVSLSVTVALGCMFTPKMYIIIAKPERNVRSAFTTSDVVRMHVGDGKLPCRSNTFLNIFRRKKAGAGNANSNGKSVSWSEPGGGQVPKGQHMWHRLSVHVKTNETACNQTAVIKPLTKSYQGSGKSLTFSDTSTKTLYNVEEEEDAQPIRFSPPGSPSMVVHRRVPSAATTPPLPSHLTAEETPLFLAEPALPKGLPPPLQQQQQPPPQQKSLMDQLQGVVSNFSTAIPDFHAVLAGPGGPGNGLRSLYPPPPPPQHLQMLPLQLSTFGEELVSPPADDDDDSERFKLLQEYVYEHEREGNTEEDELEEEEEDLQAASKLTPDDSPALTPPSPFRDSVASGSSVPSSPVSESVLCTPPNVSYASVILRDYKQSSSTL

[13] = Toxicity in male Wistar rat assessed as improvement in sleep-wake profile by measuring active wake state at 10 mg/kg, po measured at 120 mins post treatment by EEG analysis; assay type: organism-based; conditions: in vivo, 2 h
[14] = Toxicity in male Wistar rat assessed as reduction in delta power at 10 mg/kg, po measured at 60 to 240 mins post treatment by EEG analysis; assay type: organism-based; conditions: in vivo, time 60-240 min
[15] = Antagonist activity at peripheral Benzodiazepine receptor (unknown origin); design: species or system Homo sapiens
[16] = Drug metabolism in rat liver microsomes assessed as furanyl ring opening incubated for 60 mins; assay type: ADME, Microsome; conditions: 1 h
[17] = Cmax in amphetamine-induced male Sprague-Dawley rat model at 60 mg/kg and measured at 3.33 hrs post administration; assay type: ADME, organism-based; conditions: in vivo
[18] = Toxicity in male Wistar rat assessed as improvement in sleep-wake profile by measuring quiet wake state at 10 mg/kg, po measured at 120 mins post treatment by EEG analysis; assay type: organism-based; conditions: in vivo, 2 h
Mus musculus [19] = assay: Reversal of MK-801 induced deficits in male C57BL/6JRj mouse model assessed as 40 Hz ASSR in prefrontal cortex at 4 to 10 mg/kg, sc measured after 15 mins; assay type: functional, organism-based; conditions: dose 4-10 mg/kg
Rattus norvegicus [20] = assay: Antipsychotic activity in male Sprague-Dawley rat assessed as reduction in amphetamine-induced locomotor activity by measuring reversal of total ambulation at 3 mg/kg, po pretreated for 1 hrs followed by amphetamine addition and measured at 95 to 180 mins relative to control; assay type: functional; design: scale not given: the % may be the effect or the level left
Mus musculus [21] = assay: Antipsychotic efficacy against amphetamine-induced hyperlocomotion in male C57Bl/6 mouse assessed as reversal of hyperlocomotive state administered ip and pretreated with compound followed by amphetamine addition for 60 mins and measured after 90 mins; assay type: functional, organism-based; conditions: dose 3-30 mg/kg
[22] = Unbound initial plasma concentration in male dog at 0.5 mg/kg, iv; assay type: ADME, organism-based, Canis lupus familiaris; conditions: in vivo
[23] = biological target: Metabotropic glutamate receptor 3 (Homo sapiens, UniProt Q14832); assay: Positive allosteric modulation of human mGlu3 receptor
[24] = Glutathione reactivity in rat liver microsomes incubated for 1 hr in presence of glutathione; assay type: ADME, Microsome
[25] = biological target: Metabotropic glutamate receptor 5 (Homo sapiens, UniProt P41594); assay: Positive allosteric modulation of human mGlu5 receptor
Sequence of Metabotropic glutamate receptor 5 (Homo sapiens, UniProt P41594) (P41594 whole entry): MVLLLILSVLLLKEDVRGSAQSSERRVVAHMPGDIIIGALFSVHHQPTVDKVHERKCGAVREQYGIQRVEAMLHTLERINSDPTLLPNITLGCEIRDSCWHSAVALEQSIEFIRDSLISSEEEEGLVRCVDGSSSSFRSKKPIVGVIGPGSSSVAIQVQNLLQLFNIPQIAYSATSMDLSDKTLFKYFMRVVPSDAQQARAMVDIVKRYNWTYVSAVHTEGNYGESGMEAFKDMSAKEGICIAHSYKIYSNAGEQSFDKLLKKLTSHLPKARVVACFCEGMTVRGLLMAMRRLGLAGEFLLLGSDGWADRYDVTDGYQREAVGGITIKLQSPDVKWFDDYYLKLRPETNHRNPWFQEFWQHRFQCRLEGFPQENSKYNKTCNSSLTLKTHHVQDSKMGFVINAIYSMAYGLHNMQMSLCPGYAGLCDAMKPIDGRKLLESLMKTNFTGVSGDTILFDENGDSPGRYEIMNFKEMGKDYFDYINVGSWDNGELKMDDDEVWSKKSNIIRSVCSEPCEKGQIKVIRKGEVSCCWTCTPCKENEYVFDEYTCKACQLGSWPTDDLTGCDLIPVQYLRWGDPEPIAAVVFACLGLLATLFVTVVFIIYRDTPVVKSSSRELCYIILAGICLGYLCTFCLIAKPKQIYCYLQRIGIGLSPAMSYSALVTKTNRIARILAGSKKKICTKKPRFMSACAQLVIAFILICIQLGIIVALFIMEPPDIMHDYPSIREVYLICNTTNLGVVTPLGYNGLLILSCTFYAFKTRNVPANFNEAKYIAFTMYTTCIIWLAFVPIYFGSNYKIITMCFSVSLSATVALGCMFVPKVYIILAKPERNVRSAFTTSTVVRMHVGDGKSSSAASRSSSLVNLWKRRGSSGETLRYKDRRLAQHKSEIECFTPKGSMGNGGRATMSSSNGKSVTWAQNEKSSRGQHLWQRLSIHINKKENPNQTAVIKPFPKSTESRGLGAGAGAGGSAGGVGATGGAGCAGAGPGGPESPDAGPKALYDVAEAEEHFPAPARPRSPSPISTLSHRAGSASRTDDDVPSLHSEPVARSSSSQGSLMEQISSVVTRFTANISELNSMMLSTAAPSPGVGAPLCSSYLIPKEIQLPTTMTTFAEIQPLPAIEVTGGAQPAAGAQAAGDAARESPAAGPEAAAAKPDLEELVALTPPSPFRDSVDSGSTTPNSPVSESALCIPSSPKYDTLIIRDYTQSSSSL

[26] = biological target: Metabotropic glutamate receptor 2 (Rattus norvegicus, UniProt P31421); assay: Positive allosteric modulation of rat mGlu2 receptor
Mus musculus [27] = assay: Reversal of MK-801 induced N1 sensory gating deficit in male C57BL/6JRj mouse model assessed as improvement in cognitive deficits at 10 mg/kg, sc; assay type: functional, organism-based
[28] = biological target: Metabotropic glutamate receptor 8 (Rattus norvegicus, UniProt P70579); assay: Positive allosteric modulation of rat mGlu8 receptor
[29] = Drug metabolism in rat liver microsomes assessed as furanyl ring oxidation incubated for 60 mins; assay type: ADME, Microsome; conditions: 1 h
[30] = biological target: Metabotropic glutamate receptor 7 (Homo sapiens, UniProt Q14831); assay: Positive allosteric modulation of human mGlu7 receptor
[31] = Toxicity in male Wistar rat assessed as change in body temperature at 10 mg/kg, po measured at 120 mins post treatment by EEG analysis; assay type: organism-based; conditions: in vivo, 2 h
[32] = Toxicity in male Wistar rat assessed as increase in motor activity at 10 mg/kg, po measured at 120 mins post treatment by EEG analysis; assay type: organism-based; conditions: in vivo, 2 h
[33] = Drug metabolism in human liver microsomes assessed as furanyl ring opening incubated for 60 mins; assay type: ADME, Microsome; conditions: 1 h
Mus musculus [34] = assay: Reversal of MK-801 induced deficits in male C57BL/6JRj mouse model assessed as 40 Hz ASSR in prefrontal cortex at 0.8 mg/kg, sc measured after 15 mins; assay type: functional, organism-based
[35] = Toxicity in male Wistar rat assessed as reduction in beta power at 10 mg/kg, po measured at 60 to 240 mins post treatment by EEG analysis; assay type: organism-based; conditions: in vivo, time 60-240 min
[36] = biological target: Metabotropic glutamate receptor 4 (Homo sapiens, UniProt Q14833); assay: Positive allosteric modulation of human mGlu4 receptor
Mus musculus [37] = assay: Reversal of MK-801 induced deficits in sc dosed male C57BL/6JRj mouse model assessed as 40 Hz ASSR in prefrontal cortex measured after 15 mins; assay type: functional, organism-based; conditions: dose 0.8-3 mg/kg
[38] = biological target: Metabotropic glutamate receptor 8 (Homo sapiens, UniProt O00222); assay: Positive allosteric modulation of human mGlu8 receptor
[39] = Unbound brain concentration in amphetamine-induced hyperlocomotion male Sprague-Dawley rat model at 3 mg/kg, po measured after 2.5 hrs; assay type: ADME, organism-based; conditions: in vivo
[40] = Unbound brain concentration in male Sprague-Dawley rat at 3 mg/kg, po in 10% tween 80 formulation measured at 15 to 420 mins by LC-MS/MS analysis; assay type: ADME, organism-based; conditions: in vivo, time 15-420 min
[41] = Stability of compound at pH 7.4; assay type: physicochemical; conditions: buffer
[42] = Toxicity in male Wistar rat assessed as reduction in alpha power at 10 mg/kg, po measured at 60 to 240 mins post treatment by EEG analysis; assay type: organism-based; conditions: in vivo, time 60-240 min
[43] = Unbound brain concentration in amphetamine-induced hyperlocomotion male Sprague-Dawley rat model at 3 mg/kg, po pretreated for 2.5 hrs; assay type: ADME, organism-based; conditions: in vivo
[44] = Toxicity in male Sprague-Dawley rat assessed as catalepsy at 1 to 10 mg/kg, po measured after 60 mins; assay type: organism-based; conditions: in vivo, 1 h, dose 1-10 mg/kg
[45] = biological target: Metabotropic glutamate receptor 4 (Rattus norvegicus, UniProt P31423); assay: Positive allosteric modulation of rat mGlu4 receptor
[46] = biological target: T1, Metabotropic glutamate receptor 1; assay: Antagonist activity at mGlu1 receptor (unknown origin) assessed as desensitization of receptor at EC80 concentration; conditions: filed as antagonist
Target sequence in this assay (Q13255 19-1194 limits assumed): as the sequence (Q13255 19-1194 limits assumed) above

[47] = Glutathione reactivity in human liver microsomes incubated for 1 hr in presence of glutathione; assay type: ADME, Microsome
Rattus norvegicus [48] = assay: Antipsychotic efficacy against MK-801-induced po dosed male Sprague-Dawley rat assessed as reversal of MK-801 disruption by measuring recognition index measured after 30 mins by novel object recognition test; assay type: functional, organism-based; conditions: dose 1-10 mg/kg
[49] = biological target: T1, Metabotropic glutamate receptor 1; assay: Positive allosteric modulation of mGlu1 receptor (unknown origin) in presence of glutamate at EC20 concentration; conditions: filed as positive allosteric modulator
Target sequence in this assay (Q13255 19-1194 limits assumed): as above

[50] = Drug metabolism in human liver microsomes assessed as furanyl ring oxidation incubated for 60 mins; assay type: ADME, Microsome; conditions: 1 h
[51] = Unbound brain concentration in amphetamine-induced hyperlocomotion male Sprague-Dawley rat model at 3 mg/kg, po; assay type: ADME, organism-based; conditions: in vivo
[52] = biological target: Metabotropic glutamate receptor 2 (Homo sapiens, UniProt Q14416); assay: Positive allosteric modulation of human mGlu2 receptor
[53] = Toxicity in male Wistar rat assessed as reduction in rapid eye movement sleep at 1 to 10 mg/kg, po measured at 30 to 120 mins post treatment by EEG analysis; assay type: organism-based; conditions: in vivo, dose lower 1 mg/kg, time lower 30 min, dose upper 10 mg/kg, time upper 120 min
[54] = Initial plasma concentration in male dog; assay type: ADME, Canis lupus familiaris; conditions: read-out: C0
[55] = Unbound initial plasma concentration in male dog; assay type: ADME, Canis lupus familiaris
[56] = biological target: T1, Metabotropic glutamate receptor 1; assay: Positive allosteric modulation of human mGlu1
Target sequence in this assay (Q13255 whole entry): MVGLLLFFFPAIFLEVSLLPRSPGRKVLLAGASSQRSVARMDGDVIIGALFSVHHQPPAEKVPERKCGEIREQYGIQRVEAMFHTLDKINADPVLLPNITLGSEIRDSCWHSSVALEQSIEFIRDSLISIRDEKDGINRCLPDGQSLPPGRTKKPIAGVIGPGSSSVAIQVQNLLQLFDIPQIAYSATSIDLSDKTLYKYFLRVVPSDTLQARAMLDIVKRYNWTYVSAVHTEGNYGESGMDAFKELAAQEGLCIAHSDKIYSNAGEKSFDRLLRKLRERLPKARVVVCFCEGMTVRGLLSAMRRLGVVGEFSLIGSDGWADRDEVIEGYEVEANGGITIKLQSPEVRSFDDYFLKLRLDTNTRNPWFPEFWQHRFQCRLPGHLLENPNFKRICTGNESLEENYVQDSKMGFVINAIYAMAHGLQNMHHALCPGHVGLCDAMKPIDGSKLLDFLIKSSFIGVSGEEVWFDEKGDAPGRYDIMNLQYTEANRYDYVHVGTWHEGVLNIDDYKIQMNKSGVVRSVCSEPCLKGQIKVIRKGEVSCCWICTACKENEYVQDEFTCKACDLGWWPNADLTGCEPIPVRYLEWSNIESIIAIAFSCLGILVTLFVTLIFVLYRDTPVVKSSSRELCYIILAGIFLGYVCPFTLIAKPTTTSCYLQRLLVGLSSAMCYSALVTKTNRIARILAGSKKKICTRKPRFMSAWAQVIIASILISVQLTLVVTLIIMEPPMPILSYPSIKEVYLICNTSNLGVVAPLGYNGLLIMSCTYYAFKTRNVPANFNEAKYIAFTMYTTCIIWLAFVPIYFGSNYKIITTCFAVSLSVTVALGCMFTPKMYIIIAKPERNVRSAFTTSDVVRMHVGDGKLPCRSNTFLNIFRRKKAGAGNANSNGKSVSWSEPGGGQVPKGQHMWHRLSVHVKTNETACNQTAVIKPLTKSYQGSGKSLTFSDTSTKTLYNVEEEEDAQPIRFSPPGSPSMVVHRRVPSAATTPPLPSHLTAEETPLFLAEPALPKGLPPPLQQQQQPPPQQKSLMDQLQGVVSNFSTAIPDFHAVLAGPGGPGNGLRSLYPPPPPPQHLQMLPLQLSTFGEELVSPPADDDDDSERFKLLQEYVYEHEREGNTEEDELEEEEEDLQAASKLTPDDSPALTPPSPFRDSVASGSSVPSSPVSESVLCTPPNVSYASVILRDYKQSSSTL

SMILES: O=C(CCCN1CCC(O)(c2ccc(Cl)cc2)CC1)c1ccc(F)cc1 [HALOPERIDOL]
Activity [1]: Toxic

EC50 [2]: > 30 µM
Drug uptake(free) [4]: 44 nM
Drug uptake(free) [5]: 44 nM
EC50 [6]: > 30 µM
Stability [9]: Stable
EC50 [11]: > 30 µM
Activity [12]: inactive
IC50 [15]: 0.207 µM
Drug metabolism [16]: metabolite_notdetected
Cmax [17]: 313 nM
C0(unbound) [22]: 80 nM
EC50 [23]: > 30 µM
Drug metabolism [24]: metabolite_detected
EC50 [25]: > 30 µM
EC50 [26]: > 30 µM
EC50 [28]: > 30 µM
Drug metabolism [29]: metabolite_notdetected
EC50 [30]: > 30 µM
Drug metabolism [33]: metabolite_notdetected
EC50 [36]: > 30 µM
EC50 [38]: > 30 µM
Drug uptake(free) [39]: 40 nM
Drug uptake(free) [40]: 100 nM
Stability [41]: Stable
Drug uptake(free) [43]: 32 nM
EC50 [45]: > 30 µM
Drug metabolism [47]: metabolite_detected
Activity [49]: Active
Drug metabolism [50]: metabolite_notdetected
Drug uptake(free) [51]: 40 nM
EC50 [52]: > 30 µM
SMILES: Cn1nc(-c2ccnn2C)cc1CNC(=O)c1cc(-c2ccco2)ccc1Cl
Activity [3]: Non-toxic
Activity (Rattus norvegicus [7]): Dose-dependent-effect
Activity [8]: Non-toxic
Activity (Rattus norvegicus [10]): 25.1%
Activity [13]: Non-toxic
Activity [14]: Non-toxic
Activity [18]: Non-toxic
Activity (Mus musculus [19]): Active
Activity (Rattus norvegicus [20]): 27.3%
Activity (Mus musculus [21]): Dose-dependent-effect
Activity (Mus musculus [27]): Active
Activity [31]: Non-toxic
Activity [32]: Non-toxic
Activity (Mus musculus [34]): inactive
Activity [35]: Non-toxic
Activity (Mus musculus [37]): Active
Activity [42]: Non-toxic
Activity [44]: Non-toxic
Activity [46]: Active; Slight Desensitization Was Observed
Activity (Rattus norvegicus [48]): Dose-dependent-effect
Activity [53]: Non-toxic

concentration [54]: 1100 nM
C0(unbound) [55]: 36.4 nM
EC50 [56]: 0.013 µM
SMILES: Cc1ccc2c(c1)C(=O)N(c1ccc(NC(=O)c3occc3C)c(F)c1)C2=O
